Experimental data reported in patent publication US10011610B2, “Selective BACE1 inhibitors” (Eli Lilly and Company, priority 2015, dated 2018).
pIC50: −log10 of the molar value. Read-outs that look alike come from different tables or passages of the source.

Tests used:
[1] = molecular target: T1, human BACE2 (1-460):Fc (Homo sapiens, UniProt Q9Y5Z0); assay: BACE2 MBP-C125Swe Assay; format: biochemical
T1 construct: made in house; host or cells: HEK293 (transient transfection, purified from conditioned media by Protein A)
T1 sequence (Q9Y5Z0 21-460): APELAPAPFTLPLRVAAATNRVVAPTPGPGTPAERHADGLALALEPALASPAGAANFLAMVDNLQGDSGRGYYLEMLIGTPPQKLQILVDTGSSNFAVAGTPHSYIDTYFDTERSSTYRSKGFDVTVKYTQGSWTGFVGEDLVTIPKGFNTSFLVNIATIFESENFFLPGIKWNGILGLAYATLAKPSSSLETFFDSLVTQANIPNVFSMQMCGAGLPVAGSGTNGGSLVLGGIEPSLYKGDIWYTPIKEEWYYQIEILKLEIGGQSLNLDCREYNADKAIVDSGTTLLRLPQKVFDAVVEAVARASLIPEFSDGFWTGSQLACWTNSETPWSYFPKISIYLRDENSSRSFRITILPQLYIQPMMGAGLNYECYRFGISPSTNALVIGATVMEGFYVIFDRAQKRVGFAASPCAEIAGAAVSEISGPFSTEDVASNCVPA
Experimental: (§1) To assess selectivity of BACE1 over BACE2, the test compound is evaluated in FRET and immunoassay detection base enzymatic assays using specific substrates for BACE1 and BACE2 as described below. For in vitro enzymatic and cellular assays, the test compound is prepared in DMSO to make up a 10 mM stock solution. The stock solution is serially diluted in DMSO to obtain a ten-point dilution curve with final compound concentrations ranging from 10 μM to 0.05 nM in a 96-well round-bottom plate before conducting the in vitro enzymatic and whole cell assays.
Human BACE1 (accession number: AF190725) and human BACE2 (accession number: AF 204944) are cloned from total brain cDNA by RT-PCR. The nucleotide sequences corresponding to amino acid sequences #1 to 460 are inserted into the cDNA encoding human IgG1 (Fc) polypeptide (Vassar et al., Science, 286, 735-742 (1999)). This fusion protein of BACE1(1-460) or BACE2(1-460) and human Fc, named huBACE1:Fc and huBACE2:Fc respectively, are constructed in the pJB02 vector. […]
(§2) Conditioned media of HEK293 cells transiently transfected with huBACE1:Fc or huBACE2:Fc cDNA are collected. […] The purity of final product is assessed by electrophoresis in 4-20% Tris-Glycine SDS-PAGE. […]
10 point serial dilutions of test compounds are prepared in the appropriate range. […] The amount of product is measured by ELISA using MBP-C26swe standard. […]

[2] = molecular target: T2, human BACE1(1-460):Fc (Homo sapiens, UniProt P56817); assay: BACE1 FRET Assay; format: biochemical; conditions: purified recombinant huBACE1:Fc, mean±standard deviation of the mean, n=4
T2 construct: made in house; host or cells: HEK293 (transient transfection, purified from conditioned media by Protein A)
Experimental: as §1
Human BACE1 (accession number: AF190725) and human BACE2 (accession number: AF 204944) are cloned from total brain cDNA by RT-PCR. The nucleotide sequences corresponding to amino acid sequences #1 to 460 are inserted into the cDNA encoding human IgG1 (Fc) polypeptide (Vassar et al., Science, 286, 735-742 (1999)). […]
as §2
Serial dilutions of the test compound are prepared as described above. […] The RFU of the mixture at time 0 is recorded at excitation wavelength 355 nm and emission wavelength 460 nm, after brief mixing on a plate shaker. […] The RFU at the end of incubation is recorded with the same excitation and emission settings used at time 0. […]

[3] = test system: BACE1 activity in SH-SY5YAPP695Wt cells; assay: SH-SY5YAPP695Wt Whole Cell Assay (Abeta 1-40 and 1-42 ELISA); format: cell-based; conditions: Homo sapiens, 24 hours incubation, mean±standard deviation of the mean, n=4
Experimental: as §1
The routine whole cell assay for the measurement of inhibition of BACE1 activity utilizes the human neuroblastoma cell line SH-SY5Y (ATCC Accession No. CRL2266) stably expressing a human APP695Wt cDNA. Cells are routinely used up to passage number 6 and then discarded.
SH-SY5YAPP695Wt cells are plated in 96 well tissue culture plates at 5.0×10^4 cells/well in 200 μL culture media (50% MEM/EBSS and Ham's F12, lx each sodium pyruvate, non-essential amino acids and NaHCO3 containing 10% FBS). […]
At the end of the incubation, conditioned media are analyzed for evidence of beta-secretase activity by analysis of Abeta peptides 1-40 and 1-42 by specific sandwich ELISAs. […]

[4] = test system: Abeta 1-x peptide levels in brain; assay: In Vivo Inhibition of Beta-Secretase (brain Abeta 1-x in PDAPP mice); conditions: p<0.01; for reduction of Abeta 1-x peptide levels in brain hippocampus: young female PDAPP mice; for reduction of Abeta 1-x levels in brain cortical tissue: PDAPP mice, compared to vehicle-treated mice three hours after dosing
Source text: Several animal models, including mouse, guinea pig, dog, and monkey, may be used to screen for inhibition of beta-secretase activity in vivo following compound treatment. Animals used in this invention can be wild type, transgenic, or gene knockout animals. For example, the PDAPP mouse model, prepared as described in Games et al., Nature 373, 523-527 (1995), and other non-transgenic or gene knockout animals are useful to analyze in vivo inhibition of Abeta and sAPPbeta production in the presence of inhibitory compounds. Generally, 2 month old PDAPP mice, gene knockout mice or non-transgenic animals are administered compound formulated in vehicles, such as corn oil, beta-cyclodextran, phosphate buffers, PHARMASOLVE®, or other suitable vehicles via oral, subcutaneous, intra-venous, feeding, or other route of administration. 1 to 24 hours following the administration of compound, animals are sacrificed, and brains are removed for analysis of Abeta 1-x. “Abeta 1-x” as used herein refers to the sum of Abeta species that begin with residue 1 and end with a C-terminus greater than residue 28. This detects the majority of Abeta species and is often called “total Abeta”. Total Abeta peptides (Abeta 1-x) levels are measured by a sandwich ELISA, using monoclonal 266 as a capture antibody and biotinylated 3D6 as reporting antibody. (See May, et al., Journal of Neuroscience, 31, 16507-16516 (2011)).
For acute studies, compound or appropriate vehicle is administered and animals are sacrificed at about 3 hours after dosing. Brain tissue, is obtained from selected animals and analyzed for the presence of Abeta 1-x. After chronic dosing brain tissues of older APP transgenic animals may also be analyzed for the amount of beta-amyloid plaques following compound treatment.
For example, a 0.1, 0.3, and 1 mg/kg oral dose of Example 1, to young female PDAPP mice reduced Abeta 1-x peptide levels in brain hippocampus by 32%, 40%, and 55% (all values p<0.01), respectively.

T2 sequence (P56817 22-460): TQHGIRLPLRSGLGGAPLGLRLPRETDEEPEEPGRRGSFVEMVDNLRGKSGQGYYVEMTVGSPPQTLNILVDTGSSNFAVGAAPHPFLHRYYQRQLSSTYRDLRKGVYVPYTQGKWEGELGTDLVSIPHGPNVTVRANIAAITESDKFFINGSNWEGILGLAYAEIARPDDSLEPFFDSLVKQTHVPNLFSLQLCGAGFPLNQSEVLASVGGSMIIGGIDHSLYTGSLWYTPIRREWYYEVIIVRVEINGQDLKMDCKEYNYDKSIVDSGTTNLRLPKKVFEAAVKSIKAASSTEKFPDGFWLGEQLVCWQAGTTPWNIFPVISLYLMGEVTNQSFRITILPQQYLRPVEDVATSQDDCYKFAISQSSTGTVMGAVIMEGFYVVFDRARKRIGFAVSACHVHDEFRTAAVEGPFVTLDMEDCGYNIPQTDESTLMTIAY

SMILES: CC(F)(F)[C@H]1OC[C@]2(c3cc(NC(=O)c4ccc(C#N)cn4)ccc3F)N=C(N)SC[C@H]12 [Example 1, N-[3-[(4aS,5S,7aS)-2-Amino-5-(1,1-difluoroethyl)-4,4a,5,7-tetrahydrofuro[3,4-d][1,3]thiazin-7a-yl]-4-fluoro-phenyl]-5-cyano-pyridine-2-carboxamide]
- pIC50 ([1]; MBP-C125Swe substrate, ELISA detection, mean±standard deviation of the mean, n=6): 7.75
- ratio of BACE1 (FRET IC50 enzyme assay) to BACE2 (MBP-C125Swe cell assay) ([1]; selectivity for BACE1 over BACE2): approximately 35 fold
- pIC50 [2]: 9.29
- pIC50 ([3]; read-out: IC50 for SH-SY5YAPP695Wt A-beta (1-40) ELISA): 9.80
- pIC50 ([3]; read-out: IC50 for SH-SY5YAPP695Wt A-beta (1-42) ELISA): 9.75
- reduction of Abeta 1-x peptide levels in brain hippocampus ([4]; 0.1 mg/kg oral dose): 32%
- reduction of Abeta 1-x levels in brain cortical tissue ([4]; 0.1 mg/kg): 38%
- reduction of Abeta 1-x peptide levels in brain hippocampus ([4]; 0.3 mg/kg oral dose): 40%
- reduction of Abeta 1-x levels in brain cortical tissue ([4]; 0.3 mg/kg): 50%
- reduction of Abeta 1-x peptide levels in brain hippocampus ([4]; 1 mg/kg oral dose): 55%
- reduction of Abeta 1-x levels in brain cortical tissue ([4]; 1 mg/kg): 67%
